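Each compound was tested at five concentrations against cells in 96-well plates for 48 hours. The concentration for 50% growth inhibition is given as GI50. TGI is the concentration that stops growth completely.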
Assays:
Assay in all cases: growth of human tumour cells (NCI), 48 h
[1] = tested on: SNB-19 CNS
[2] = tested on: HCC-2998 colon
[3] = tested on: OVCAR-3 ovarian
[4] = tested on: NCI-H226 lung
[5] = tested on: HOP-62 NSCLC
[6] = tested on: A549 NSCLC
[7] = tested on: UACC-257 melanoma
[8] = tested on: LOX IMVI melanoma
[9] = tested on: RPMI-8226 leukemia
[10] = tested on: T-47D breast

## Clc1ccc(CCn2cncn2)c(Cl)c1
[1]
  TGI: > 100 µM
[2]
  TGI: > 100 µM
[3]
  TGI: > 100 µM
[4]
  TGI: > 100 µM
[5]
  TGI: > 100 µM
[6]
  TGI: > 100 µM
[7]
  TGI: > 100 µM

## Cn1c(-c2ccccc2)c/c(=N\NS(C)(=O)=O)c2cc(S(=O)(=O)O)ccc21
[1]
  TGI: > 100 µM
[8]
  TGI: > 100 µM
[2]
  TGI: > 100 µM
[3]
  TGI: > 100 µM
[4]
  TGI: > 100 µM
[9]
  TGI: > 100 µM
[5]
  TGI: > 100 µM
[6]
  TGI: > 100 µM
[7]
  TGI: > 100 µM

## N#Cc1ccccc1/C=N/O
[1]
  TGI: > 100 µM
[8]
  TGI: > 100 µM
[2]
  TGI: > 100 µM
[3]
  TGI: > 100 µM
[4]
  TGI: > 100 µM
[9]
  TGI: > 66.7 µM
[5]
  TGI: > 100 µM
[6]
  TGI: > 100 µM
[7]
  TGI: > 100 µM

## COC(=O)/C(Br)=C/c1c[nH]c2ccc(Br)cc12
[1]
  GI50: 16.7 µM
  TGI: 45.7 µM
[8]
  GI50: 7.18 µM
  TGI: 20.2 µM
[10]
  GI50: 11.1 µM
  TGI: 24.5 µM
[2]
  GI50: 15.9 µM
  TGI: 30.4 µM
[3]
  GI50: 16.2 µM
  TGI: 66.9 µM
[4]
  GI50: 14.4 µM
  TGI: 33.2 µM
[5]
  GI50: 17.6 µM
  TGI: 51.9 µM
[7]
  GI50: 24.1 µM
  TGI: 69.4 µM

## O=C(CN/C=C\C(=O)c1cc(Cl)ccc1Cl)c1ccccc1
[1]
  GI50: 47.4 µM
  TGI: > 100 µM
[8]
  GI50: 19.8 µM
  TGI: 35.1 µM
[10]
  GI50: 33.4 µM
  TGI: > 100 µM
[2]
  GI50: 19.3 µM
  TGI: 47.2 µM
[3]
  GI50: 26 µM
  TGI: 85.7 µM
[4]
  GI50: 25.5 µM
  TGI: 58.8 µM
[5]
  GI50: 34.5 µM
  TGI: > 100 µM
[6]
  GI50: 67 µM
  TGI: > 100 µM
[7]
  GI50: 24.7 µM
  TGI: 61.9 µM

## O=c1[nH]c(C2CCCCC2)nc2cc(Cl)ccc12
[1]
  TGI: > 100 µM
[2]
  TGI: > 100 µM
[3]
  TGI: > 100 µM
[4]
  TGI: > 100 µM
[9]
  TGI: > 100 µM
[6]
  TGI: > 100 µM
[7]
  TGI: > 100 µM

## FC(F)(F)c1ccccc1C=NC12CC3CC(CC(C3)C1)C2
[1]
  TGI: > 100 µM
[8]
  TGI: > 100 µM
[2]
  TGI: > 100 µM
[3]
  TGI: > 100 µM
[4]
  TGI: > 100 µM
[9]
  TGI: > 100 µM
[5]
  TGI: > 100 µM
[6]
  TGI: > 100 µM
[7]
  TGI: > 100 µM

## Cc1ccc(S(=O)(=O)NC(=O)Nc2nc(Cl)cc(Cl)n2)cc1
[1]
  TGI: > 100 µM
[8]
  TGI: > 100 µM
[2]
  TGI: > 100 µM
[3]
  TGI: > 100 µM
[4]
  TGI: > 100 µM
[9]
  TGI: > 100 µM
[5]
  TGI: > 100 µM
[6]
  TGI: > 100 µM
[7]
  TGI: > 100 µM

## C#CCOc1c(OC)cc(C(=O)/C(C)=C/c2cccc(N=[N+]=[N-])c2)cc1OC
[1]
  GI50: 0.333 µM
  TGI: > 100 µM
[8]
  GI50: 0.642 µM
  TGI: > 100 µM
[2]
  GI50: 0.464 µM
  TGI: > 100 µM
[3]
  GI50: 0.0519 µM
  TGI: 0.291 µM
[4]
  GI50: 15 µM
  TGI: > 100 µM
[9]
  GI50: 0.255 µM
  TGI: > 100 µM
[5]
  GI50: 0.214 µM
  TGI: > 100 µM
[6]
  GI50: 0.406 µM
  TGI: > 100 µM

## O=C(Cc1nc2ccccc2s1)NC12CC3CC(CC(C3)C1)C2
[1]
  TGI: > 100 µM
[8]
  TGI: > 100 µM
[2]
  TGI: > 100 µM
[4]
  TGI: > 100 µM
[5]
  TGI: > 100 µM
[6]
  TGI: > 100 µM
[7]
  TGI: > 100 µM

## [O-][N+]1=C(c2ccccc2)COc2ccccc21
[1]
  TGI: > 100 µM
[8]
  TGI: > 100 µM
[2]
  TGI: > 100 µM
[3]
  TGI: > 100 µM
[4]
  TGI: > 100 µM
[9]
  TGI: > 100 µM
[5]
  TGI: > 100 µM
[6]
  TGI: > 100 µM
[7]
  TGI: > 100 µM

## COc1cc([C@@H]2c3cc4c(cc3[C@@H](NC(=O)c3ccc([N+](=O)[O-])cc3)C3COC(=O)[C@@H]32)OCO4)cc(OC)c1O (stereo not given in full)
[1]
  TGI: 6.06 µM
[8]
  TGI: 5.86 µM
[2]
  TGI: 3.44 µM
[3]
  TGI: 4.81 µM
[4]
  TGI: 1.82 µM
[9]
  TGI: 3.62 µM
[5]
  TGI: 1.12 µM
[6]
  TGI: 1.53 µM
[7]
  TGI: 59.6 µM

## COC(C(=O)[C@@H](O)[C@@H](C)O)[C@@H]1Cc2cc3cc(O[C@H]4C[C@@H](O[C@H]5C[C@@H](O)[C@H](O)C(C)O5)[C@H](O)C(C)O4)c(C)c(O)c3c(O)c2C(=O)[C@H]1O[C@H]1C[C@@H](O[C@H]2C[C@@H](O[C@H]3C[C@@H](O)[C@@H](O)C(C)O3)[C@@H](O)C(C)O2)[C@H](O)C(C)O1 (stereo not given in full)
[1]
  GI50: 0.324 µM
  TGI: > 32.5 µM
[8]
  GI50: 0.0639 µM
  TGI: 0.471 µM
[10]
  GI50: 0.106 µM
  TGI: > 32.5 µM
[2]
  GI50: 0.569 µM
  TGI: 7.74 µM
[3]
  GI50: 0.232 µM
  TGI: 8.76 µM
[5]
  GI50: 0.189 µM
  TGI: > 32.5 µM
[6]
  GI50: 0.674 µM
  TGI: > 32.5 µM
[7]
  GI50: 0.295 µM
  TGI: 2.04 µM

## CCC1=C[C@H]2CN(CCc3c([nH]c4ccccc34)[C@@](C(=O)OC)(c3cc4c(cc3OC)N(C)[C@H]3[C@@](O)(C(=O)OC)[C@H](OC(C)=O)[C@]5(CC)[C@@H]6C[C@@H]6CN6CC[C@]43[C@@H]65)C2)C1
[1]
  GI50: 0.0825 µM
  TGI: 23.4 µM
[8]
  GI50: 0.0229 µM
  TGI: 3.4 µM
[2]
  GI50: 0.084 µM
  TGI: 3.07 µM
[3]
  GI50: 0.0105 µM
  TGI: 2.59 µM
[4]
  GI50: 2.65 µM
  TGI: 10.3 µM
[5]
  GI50: 0.0249 µM
  TGI: 4.43 µM
[6]
  GI50: 0.0396 µM
  TGI: 9.56 µM
[7]
  GI50: 3.42 µM
  TGI: 7.33 µM

## Cc1ccccc1C(C#N)/C(=N/NC(=O)C(=O)NN)C(=O)Nc1cccc(C(F)(F)F)c1 (stereo not given)
[1]
  TGI: > 100 µM
[2]
  TGI: > 100 µM
[3]
  TGI: > 100 µM
[4]
  TGI: > 100 µM
[9]
  TGI: > 100 µM
[5]
  TGI: > 100 µM
[6]
  TGI: > 100 µM
[7]
  TGI: > 100 µM

## O=C(Nc1ccc(Cl)cc1Cl)/C(Cl)=C1/Sc2ccccc2NC1=O
[1]
  TGI: > 100 µM
[8]
  TGI: > 100 µM
[2]
  TGI: > 100 µM
[4]
  TGI: 79.2 µM
[9]
  TGI: 65.9 µM
[5]
  TGI: > 100 µM
[6]
  TGI: > 100 µM

## CNC(=S)N/N=C(/C)CCC/C(C)=N/NC(=S)NC
[1]
  TGI: > 100 µM
[8]
  TGI: 44.2 µM
[10]
  TGI: > 100 µM
[3]
  TGI: > 93.2 µM
[4]
  TGI: > 100 µM
[9]
  TGI: > 100 µM
[5]
  TGI: > 100 µM
[6]
  TGI: > 100 µM
[7]
  TGI: > 100 µM

## C=C1CCC2C(C)(CO)C(O)CCC2(C)C1CC(O)C1=CCOC1=O (stereo not given)
[1]
  TGI: > 100 µM
[8]
  TGI: > 100 µM
[2]
  TGI: 40.8 µM
[3]
  TGI: 58.9 µM
[4]
  TGI: > 100 µM
[9]
  TGI: > 100 µM
[5]
  TGI: > 100 µM
[6]
  TGI: > 100 µM
[7]
  TGI: > 100 µM

## COC(=O)CCC(=O)C(C#N)c1ccc(Cl)cc1Cl (stereo not given)
[1]
  TGI: > 100 µM
[8]
  TGI: > 100 µM
[3]
  TGI: > 100 µM
[4]
  TGI: > 100 µM
[9]
  TGI: > 100 µM
[6]
  TGI: > 100 µM
[7]
  TGI: > 100 µM

## O=C(O)c1cn(C2CC2)c2cc(N3CCN(C(=O)Nc4nc(-c5ccc(Cl)cc5)cs4)CC3)c(F)cc2c1=O
[1]
  GI50: 2.74 µM
  TGI: > 100 µM
[8]
  GI50: 0.567 µM
  TGI: > 100 µM
[10]
  GI50: 1.65 µM
  TGI: > 100 µM
[2]
  GI50: 4.09 µM
  TGI: > 100 µM
[3]
  GI50: 2.38 µM
  TGI: 34.6 µM
[4]
  GI50: 3.23 µM
  TGI: 87.7 µM
[5]
  GI50: 3 µM
  TGI: 96.1 µM
[6]
  GI50: 2.71 µM
  TGI: > 100 µM
[7]
  GI50: 2.92 µM
  TGI: 8.24 µM
